Where two headings read alike, the source gives them in different places.
Columns and labels:
CVB3 [1] = conditions: for IC50: read-out: IC5, HeLa cell culture with CVB3; for order of antiviral potency: CVB3, same order as against HRV2; for antiviral effect against CVB3 relative to cytotoxic effect: % virus yield versus % cell metabolism, HeLa cells, FIG. 1
Excerpt: (§1) The toxicity of the compounds (CC50, being the concentration causing 50% reduction in cell metabolism as measured by Alamar Blue assay) reflects the relative activity of each compound against cellular ion channels, while the antiviral activity (IC50) reflects the relative activity of each compound against the RdRP of CVB3.

CVB3 [2] = experiment: Time of addition of drugs to CVB3-infected cultures, total virus yield; type: cell-based, Coxsackievirus B3; conditions: 400 μM amiloride or 25 μM EIPA, added up to 2 hours post-infection, yield at 10 hours
Protocol: Cultures were incubated until 10 hours post-infection, then the total virus yield (released virus+intracellular virus) was quantitated (FIG. 2A). Kinetics of virus production was measured in parallel (FIG. 2B). […] This contrasts with well-known antiviral drugs active against picornaviruses such as Pleconaril, which prevent uncoating and/or binding to the cell.

CVB3 [3] = experiment: Release of virus from CVB3-infected cells; type: cell-based, Coxsackievirus B3; conditions: compared to untreated controls, FIG. 3
CVB3 [4] = experiment: Reversibility: compounds removed at various times post-infection, CVB3 yield at 10 hours; type: cell-based, Coxsackievirus B3; conditions: compounds removed at 1, 2 or 4 hours post-infection, HeLa cells
Protocol: Virus replication was then allowed to continue until 10 hours post-infection.

CVB3 [5] = experiment: Viral assembly: viral RNA (3H-uridine) versus virus produced; type: cell-based, Coxsackievirus B3; conditions: 3H-uridine labelling; 25 micromolar EIPA (compared with 500 micromolar guanidine), 400 micromolar amiloride
Protocol: In a further set of experiments, the effect of the drugs on viral assembly was determined. […] Guanidine is well known to inhibit the initiation of viral RNA replication through its effect on the viral 2C protein, but has no effect on the assembly of virus from RNA that is replicated in its presence. Infected cells were incubated with 3H-uridine to label viral RNA, and RNA was detected by electrophoresis and autoradiography.

CVB3 [6] = experiment: Viral RNA synthesis, 3H-uridine pulse label; type: cell-based, Coxsackievirus B3; conditions: treated between four and five hours post infection, compared to untreated cells
Protocol: A standard method to determine which of the two processes is inhibited directly is to add the inhibitor and pulse-label viral RNA and proteins at the time in the replication cycle when sufficient amounts of RNA and proteins have been produced to allow continuation of one process independent of the other.
In a further set of experiments, the effect of the drugs on viral protein synthesis (see FIG. 5) and viral RNA synthesis (see FIG. 6) was determined. Cells were infected as described in Examples 2 and 3, and drugs were added to cells at four hours post infection. Radioactive labels (35S-methionine for proteins, 3H-uridine for RNA) were added to cells from 4.5-5 h post infection. Treatment with GHCl, which inhibits enteroviral RNA replication but not protein synthesis was used as a control.

[7] = system: amiloride-resistant and guanidine-resistant CVB3 clones; experiment: Cross-resistance of amiloride-resistant and guanidine-resistant virus clones; type: cell-based, Coxsackievirus B3
[8] = system: CVB3 mutants S299T, A372V, D48G; experiment: Drug sensitivity of CVB3 carrying single introduced mutations; type: cell-based, Coxsackievirus B3; conditions: for effect of D48G mutation on virus sensitivity: 2A protein mutation by itself; for sensitivity of viruses containing S299T or A372V mutations: 3D protein mutations, FIG. 11
HRV2 = conditions: cited from earlier work
[9] = concentration causing 50% reduction in cell metabolism, Alamar Blue assay, HeLa

Excerpt for HeLa cells: as §1

Compound: N=C(NCc1ccc(Cl)cc1Cl)NC(=O)c1nc(Cl)c(N)nc1N [2,4-DCB]
- IC50 (CVB3 [1]): 5 µM
- CC5 (HeLa cells; [9]): 14 µM

Compound: N/C(=N\C(=O)c1nc(Cl)c(N)nc1N)NCc1ccc(Cl)c(Cl)c1 [3,4-DCB]
- IC50 (CVB3 [1]): 5 µM
- CC5 (HeLa cells; [9]): 14 µM

Compound: NC(N)=NC(=O)c1nc(Cl)c(N)nc1N [Amiloride, 3,5-diamino-6-chloro-N-(diaminomethylidene) pyrazine-2-carboxamide]
- reduction of virus replication by time of addition (CVB3 [2]): fully effective
- proportion of extracellular virus (CVB3 [3]): slight increase
- CVB3 production at 10 hours post-infection after removal of compound (CVB3 [4]): equivalent to that of the untreated cultures
- amount of viral RNA produced (CVB3 [5]): greatly reduced
- amount of viral RNA synthesis (CVB3 [6]): dramatically reduced
- sensitivity of guanidine-resistant virus clones to antiviral effect ([7]; six clones of guanidine-resistant virus): remained sensitive
- effect of D48G mutation on virus sensitivity [8]: no significant effect
- sensitivity of viruses containing S299T or A372V mutations [8]: reduced sensitivity
- order of antiviral potency (CVB3 [1]): EIPA>benzamil>amiloride
- IC50 (CVB3 [1]): 50 µM
- CC5 (HeLa cells): >1000 µM
- effect upon HRV2 RNA replication (HRV2): no effect

Compound: N/C(=N\C(=O)c1nc(Cl)c(N)nc1N)NCc1ccccc1 [Benzamil]
- antiviral effect against CVB3 relative to cytotoxic effect (CVB3 [1]): selective antiviral effect
- order of antiviral potency (CVB3 [1]): EIPA>benzamil>amiloride
- IC50 (CVB3 [1]): 10 µM
- CC5 (HeLa cells; [9]): 100 µM

Compound: CNC(N)=NC(=O)c1cc(Cl)ccc1O [CHMG]
- IC50 (CVB3 [1]): 9 µM
- CC5 (HeLa cells; [9]): 155 µM

Compound: CN(C)c1nc(N)c(C(=O)N=C(N)N)nc1Cl [DMA]
- IC50 (CVB3 [1]): 90 µM
- CC5 (HeLa cells; [9]): 190 µM

Compound: CCN(c1nc(N)c(C(=O)N=C(N)N)nc1Cl)C(C)C [EIPA, 5-(N-ethyl-N-isopropyl)amiloride]
- reduction of virus replication by time of addition (CVB3 [2]): fully effective
- proportion of extracellular virus (CVB3 [3]): slight increase
- CVB3 production at 10 hours post-infection after removal of compound (CVB3 [4]): equivalent to that of the untreated cultures
- amount of viral RNA produced (CVB3 [5]): equivalent amounts of viral RNA
- amount of viral RNA synthesis (CVB3 [6]): dramatically reduced
- effect of D48G mutation on virus sensitivity [8]: no significant effect
- sensitivity of viruses containing S299T or A372V mutations [8]: reduced sensitivity
- antiviral effect against CVB3 relative to cytotoxic effect (CVB3 [1]): selective antiviral effect
- order of antiviral potency (CVB3 [1]): EIPA>benzamil>amiloride
- IC50 (CVB3 [1]): 2 µM
- CC5 (HeLa cells; [9]): 25 µM
- effect upon HRV2 RNA replication (HRV2): no effect
- effect on HRV2 release (HRV2; previous data): inhibitory effect

Compound: NC(N)=NC(=O)c1nc(Cl)c(N2CCCCCC2)nc1N [HMA, 5-(N,N-hexamethylene)amiloride]
- antiviral effect against CVB3 relative to cytotoxic effect (CVB3 [1]): selective antiviral effect
- IC50 (CVB3 [1]): 2 µM
- CC5 (HeLa cells): 25 µM

Compound: CC(C)CN(C)c1nc(N)c(C(=O)N=C(N)N)nc1Cl [MIBA]
- IC50 (CVB3 [1]): 2 µM
- CC5 (HeLa cells; [9]): 25 µM

Compound: Cl.N=C(N)N [guanidine, guanidine hydrochloride]
- sensitivity of amiloride-resistant virus clones to antiviral effect ([7]; six clones of amiloride-resistant virus): remained sensitive

Compound: CHPG
- IC50 (CVB3 [1]): 2 µM
- CC5 (HeLa cells; [9]): 15 µM
